In paper PMC9866630, “Synthesis, Biological Evaluation and Molecular Modeling Studies of Naphthoquinone Sulfonamides and Sulfonate Ester Derivatives as P2X7 Inhibitors” (Molecules, 2023):

Legend:
P2X7R = tested on: P2X7R; parameters: method as in PMID 24314880; conditions: read-out: EC50 for P2X7R activation; cited from earlier work
hP2X7R = molecular target: T1, hP2X7R (Homo sapiens, UniProt Q99572); assay: ATP-induced IL-1β release ELISA in THP-1 cells; assay type: cell-based; conditions: human THP-1 cells, LPS 4 h, ATP 30 min
T1 construct: The monocytic THP-1 cell line used in this experiment was donated; endogenous in cells; host or cells: THP-1 human monocytic cell line
T1 sequence (Q99572 1-595): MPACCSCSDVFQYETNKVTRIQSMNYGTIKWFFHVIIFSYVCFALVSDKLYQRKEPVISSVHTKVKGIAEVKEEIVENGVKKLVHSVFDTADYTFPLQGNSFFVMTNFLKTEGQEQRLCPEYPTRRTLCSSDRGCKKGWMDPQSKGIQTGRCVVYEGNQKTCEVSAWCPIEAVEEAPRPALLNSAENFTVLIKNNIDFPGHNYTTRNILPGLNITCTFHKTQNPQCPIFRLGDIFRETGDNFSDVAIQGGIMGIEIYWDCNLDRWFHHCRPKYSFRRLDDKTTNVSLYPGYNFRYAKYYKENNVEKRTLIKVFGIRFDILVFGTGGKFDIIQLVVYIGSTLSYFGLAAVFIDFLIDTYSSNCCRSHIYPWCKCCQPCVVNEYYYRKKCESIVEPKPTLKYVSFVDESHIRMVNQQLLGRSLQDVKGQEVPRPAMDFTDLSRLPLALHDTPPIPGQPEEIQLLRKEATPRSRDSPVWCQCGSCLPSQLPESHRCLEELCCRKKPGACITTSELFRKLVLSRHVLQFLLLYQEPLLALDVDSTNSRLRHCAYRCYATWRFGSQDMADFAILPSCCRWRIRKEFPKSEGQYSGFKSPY
Experimental: (§1) The monocytic THP-1 cell line used in this experiment was donated by the Laboratory of Applied Pharmacology, Institute of Drug Technology (Farmanguinhos), Rio de Janeiro, Brazil. Cells were plated at 2 × 10^5 cells/well in 96-well culture plates maintained in RPMI containing 10% fetal bovine serum (FBS), penicillin (100 U/mL), and streptomycin ([…]) in a humidified 5% CO2 atmosphere at 37 °C. Then, the cells were primed with Escherichia coli lipopolysaccharide (LPS, serotype 0127: B8) four hours before ATP stimulation for 30 min. Mouse peritoneal macrophages were primed with 10 ng/mL interferon-γ (IFN-γ) for 24 h and posteriorly stimulated with Escherichia coli lipopolysaccharide (LPS, serotype 0127: B8). The P2X7R antagonist A740003 and naphthoquinone derivatives were preincubated for 30 min before ATP addition. IL-1β was determined according to a standard kit (Bioscience, San Diego, CA, USA and Abcam, Cambridge Biomedical Campus, Cambridge, UK).

mP2X7R = molecular target: T2, mP2X7R (Mus musculus, UniProt Q9Z1M0); assay: ATP-induced IL-1β release ELISA in mouse peritoneal macrophages; assay type: cell-based; conditions: LPS priming, ATP 30 min
T2 construct: P2X7 receptor expressed in peritoneal macrophages; endogenous in cells; host or cells: mouse peritoneal macrophages (primary)
T2 sequence (Q9Z1M0 1-595): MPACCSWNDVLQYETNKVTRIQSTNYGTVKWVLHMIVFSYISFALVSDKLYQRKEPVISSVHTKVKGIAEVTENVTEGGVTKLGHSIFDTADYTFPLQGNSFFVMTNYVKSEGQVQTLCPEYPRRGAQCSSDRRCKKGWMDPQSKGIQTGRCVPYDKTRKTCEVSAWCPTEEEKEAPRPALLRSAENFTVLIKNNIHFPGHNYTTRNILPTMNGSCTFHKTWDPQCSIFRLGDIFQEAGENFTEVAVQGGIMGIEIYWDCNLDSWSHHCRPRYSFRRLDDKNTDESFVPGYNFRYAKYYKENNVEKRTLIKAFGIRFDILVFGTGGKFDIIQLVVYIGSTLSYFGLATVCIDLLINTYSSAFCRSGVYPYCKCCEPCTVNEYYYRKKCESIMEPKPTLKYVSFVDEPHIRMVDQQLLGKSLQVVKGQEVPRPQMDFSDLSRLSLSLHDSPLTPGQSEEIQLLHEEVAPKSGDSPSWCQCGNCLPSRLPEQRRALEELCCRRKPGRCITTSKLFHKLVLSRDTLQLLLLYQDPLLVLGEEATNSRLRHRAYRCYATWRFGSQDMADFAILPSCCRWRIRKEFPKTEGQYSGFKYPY
Experimental: as §1

P2X7 receptor = molecular target: T3, P2X7 receptor (Mus musculus, UniProt Q9Z1M0); assay: ATP-induced propidium iodide dye uptake assay (P2X7R-associated pore formation); assay type: cell-based; conditions: pretreatment 10 min, 5 mM ATP 15 min, peritoneal macrophages; for Inhibition of ATP-induced PI uptake / inhibition at 10 µM: 10 µM; for inhibition at 10 µM: P2X7, read-out: Inhibition of ATP-induced PI uptake; for IC50: read-out: IC50 ATP-induced PI uptake
T3 construct: P2X7 receptor expressed in peritoneal macrophages; endogenous in cells; host or cells: mouse peritoneal macrophages (primary)
T3 sequence (Q9Z1M0 1-595): T2 sequence (Q9Z1M0 1-595)
Experimental: (§2) The animals used in these experiments were furnished by the animal breeding unit at Pavilion Hélio and Peggy Pereira at FIOCRUZ/IOC. The Institutional Animal Ethics Committee approved all experimental protocols under number L039-2016. Peritoneal macrophages were isolated from euthanized mice (weighing between 20 and 30 g) by injection of 10 mL phosphate-buffered saline (PBS) into the peritoneum of each animal. Then, the solution was completely removed from the peritoneal cavity using a syringe and transferred to 50 mL sterile tubes. Tubes were centrifuged at 1500 rpm for 5 min. The supernatant was discarded, and the pellet was resuspended in RPMI medium supplemented with 10% SFB and 1% antibiotic. The cells were counted and seeded in plates. After 40 min, the supernatant from each well was discarded to remove cells other than macrophages, and then RPMI medium was added. The macrophages were maintained in RPMI medium supplemented with 10% SFB and 1% antibiotic in a humid atmosphere at 37 °C containing 5% CO2 during the experiments.
To evaluate P2X7R-associated pore formation, a propidium iodide (PI) uptake assay was used. Peritoneal macrophages (3.0 × 10^5/well) were incubated with naphthoquinone derivatives and the inhibitor BBG (Brilliant Blue G, Sigma-Aldrich) at 10 µM and 750 nM, respectively, for 10 min. Subsequently, cells were exposed to 5 mM ATP for 15 min, and in the last 5 min, they were incubated with 1 µM PI dye. At the end of the incubation period, fluorescence was measured using a SpectraMax M5 spectrophotometer at 493/636 nm (excitation/emission). Compounds with inhibition values higher than 50% were selected to evaluate their inhibitory activity at varying concentrations. The inhibition curve was obtained using compounds at concentrations of 0.01 µM, 1 µM, 10 µM, 50 µM, and 100 µM. The controls and the procedure were the same.

ATP-induced paw edema = ATP-induced paw edema assay; assay type: in vivo, Swiss Webster mice; conditions: mice, intraperitoneal pretreatment, intra-plantar ATP, edema measured 30 min after ATP
Experimental: Paw edema in mice was induced by intra-plantar administration of ATP (10 mg/paw) for 30 min. Animals were pretreated intraperitoneally with the standard P2X7R antagonist A740003 (1 mg/kg) and the selected compounds PS01, PS02, PS03, PS09, and PS10 (1 mg/kg) for 60 min before ATP administration. Edema formation was determined with a mouse plethysmometer (UGO Basile, Gemonio, Italy) before ATP injection compared with saline injection in the contralateral paw edema.

mouse peritoneal cells = assay: LDH release cytotoxicity assay; assay type: cell-based; conditions: 24 h, increasing concentrations
Experimental: as §2
Peritoneal macrophages (3.0 × 10^5 cells/well) were grown in 96-well plates and kept in an oven at 37 °C under a 5% CO2 atmosphere. […] The assay was finished by the addition of the LDH kit’s reagent (Kit CytoTox 96® Non-Radioactive Cytotoxicity Assay, Promega, Madison, WI, USA), prepared according to the manufacturer’s instructions. After 30 min of reaction, a stop solution was added, and the absorbance was measured at 490 nm.

| SMILES | IC50 (hP2X7R) [µM] | IC50 (mP2X7R) [µM] | Inhibition of ATP-induced PI uptake (P2X7 receptor) | further results |
| --- | --- | --- | --- | --- |
| Nc1ncnc2c1ncn2[C@@H]1O[C@H](COP(=O)(O)OP(=O)(O)OP(=O)(O)O)[C@@H](O)[C@H]1O [ATP, Adenosine triphosphate] |  |  |  | EC50 (P2X7R): > 100 µM |
| CCOc1ccc(Nc2ccc(/C(=C3C=C/C(=[N+](/CC)Cc4cccc(S(=O)(=O)[O-])c4)C=C/3C)c3ccc(N(CC)Cc4cccc(S(=O)(=O)O)c4)cc3C)cc2)cc1 [BBG, Brilliant Blue G, reference compound] | 16 ± 2 | 24 ± 3 |  |  |
| COc1ccc(CC(=O)NC(N=C(NC#N)Nc2cccc3ncccc23)C(C)(C)C)cc1OC (stereo not shown) [Compound A740003, reference compound] | 0.85 ± 0.1 | 0.9 ± 0.1 | inhibited the ATP effect |  |
| O=C1C=C(Nc2ccc(NS(=O)(=O)c3ccccc3)cc2)C(=O)c2ccccc21 [PS01] | 4 ± 2 | 5 ± 1 |  | inhibition at 10 µM (P2X7 receptor): > 50%; IC50 (P2X7 receptor): 1 ± 0.1 µM; ID50 ATP−induced edema formation (ATP-induced paw edema): 0.128 ± 0.016 µg/kg; IC50 values (CC50), LDH activity (mouse peritoneal cells): 201 ± 11 µM |
| O=C1C=C(Nc2ccc(NS(=O)(=O)c3ccc(F)cc3)cc2)C(=O)c2ccccc21 [PS02] | 3 ± 0.3 | 3 ± 0.2 |  | inhibition at 10 µM (P2X7 receptor): > 50%; IC50 (P2X7 receptor): 0.3 ± 0.003 µM; ID50 ATP−induced edema formation (ATP-induced paw edema): 0.093 ± 0.008 µg/kg; IC50 values (CC50), LDH activity (mouse peritoneal cells): 298 ± 16 µM |
| Cc1ccc(S(=O)(=O)Nc2ccc(NC3=CC(=O)c4ccccc4C3=O)cc2)cc1 [PS03] | 1 ± 0.4 | 1.5 ± 0.4 |  | inhibition at 10 µM (P2X7 receptor): > 50%; IC50 (P2X7 receptor): 0.07 ± 0.003 µM; ID50 ATP−induced edema formation (ATP-induced paw edema): 0.067 ± 0.005 µg/kg; IC50 values (CC50), LDH activity (mouse peritoneal cells): 322 ± 20 µM |
| O=C1C=C(Nc2ccc(NS(=O)(=O)c3ccc4ccccc4c3)cc2)C(=O)c2ccccc21 [PS04] |  |  | did not show inhibitory effects |  |
| O=C1C=C(Nc2ccc(NS(=O)(=O)c3ccc([N+](=O)[O-])cc3)cc2)C(=O)c2ccccc21 [PS05] |  |  | did not show inhibitory effects |  |
| O=C1C(Cl)=C(Nc2ccc(NS(=O)(=O)c3ccccc3)cc2)C(=O)c2ccccc21 [PS06] |  |  | did not show inhibitory effects |  |
| Cc1ccc(S(=O)(=O)Nc2ccc(NC3=C(Cl)C(=O)c4ccccc4C3=O)cc2)cc1 [PS07] |  |  | did not show inhibitory effects |  |
| O=C1C(Cl)=C(Nc2ccc(NS(=O)(=O)c3ccc(F)cc3)cc2)C(=O)c2ccccc21 [PS08] |  |  | did not show inhibitory effects |  |
| O=C1C(Cl)=C(Nc2ccc(NS(=O)(=O)c3ccc4ccccc4c3)cc2)C(=O)c2ccccc21 [PS09] | 0.02 ± 0.002 | 0.09 ± 0.01 |  | inhibition at 10 µM (P2X7 receptor): > 50%; IC50 (P2X7 receptor): 0.008 ± 0.0001 µM; ID50 ATP−induced edema formation (ATP-induced paw edema): 0.0098 ± 0.0007 µg/kg; IC50 values (CC50), LDH activity (mouse peritoneal cells): 401 ± 18 µM |
| O=C1C(Cl)=C(Nc2ccc(NS(=O)(=O)c3ccc([N+](=O)[O-])cc3)cc2)C(=O)c2ccccc21 [PS10] | 0.3 ± 0.06 | 0.7 ± 0.1 |  | inhibition at 10 µM (P2X7 receptor): > 50%; IC50 (P2X7 receptor): 0.01 ± 0.002 µM; ID50 ATP−induced edema formation (ATP-induced paw edema): 0.0136 ± 0.016 µg/kg; IC50 values (CC50), LDH activity (mouse peritoneal cells): 351 ± 21 µM |
| NC1=CC(=O)c2cccc(OS(=O)(=O)c3ccccc3)c2C1=O [PS11] |  |  | did not show inhibitory effects |  |
| Cc1ccc(S(=O)(=O)Oc2cccc3c2C(=O)C(N)=CC3=O)cc1 [PS12] |  |  | did not show inhibitory effects |  |
| NC1=CC(=O)c2cccc(OS(=O)(=O)c3ccc(F)cc3)c2C1=O [PS13] |  |  | did not show inhibitory effects |  |
| NC1=CC(=O)c2cccc(OS(=O)(=O)c3ccc4ccccc4c3)c2C1=O [PS14] |  |  | did not show inhibitory effects |  |
| NC1=CC(=O)c2cccc(OS(=O)(=O)c3ccc([N+](=O)[O-])cc3)c2C1=O [PS15] |  |  | did not show inhibitory effects |  |
